Data as given in the Kinase Knowledgebase extract (Sharma et al. 2016).
pIC50: −log10 of the molar value.

What was measured:
[1] = biological target: PIK3CB (Human) (UniProt P42338); assay: Enzyme Assay
[2] = biological target: PIK3CD (Human) (UniProt O00329); assay: Enzyme Assay
[3] = biological target: PIK3CG (human) (UniProt P48736); assay: Enzyme Assay
[4] = biological target: PIK3CD (Human) (UniProt O00329); assay: Cell-Based Assay; conditions: raji

Chain of PIK3CB (Human) (P42338 whole entry, looked up): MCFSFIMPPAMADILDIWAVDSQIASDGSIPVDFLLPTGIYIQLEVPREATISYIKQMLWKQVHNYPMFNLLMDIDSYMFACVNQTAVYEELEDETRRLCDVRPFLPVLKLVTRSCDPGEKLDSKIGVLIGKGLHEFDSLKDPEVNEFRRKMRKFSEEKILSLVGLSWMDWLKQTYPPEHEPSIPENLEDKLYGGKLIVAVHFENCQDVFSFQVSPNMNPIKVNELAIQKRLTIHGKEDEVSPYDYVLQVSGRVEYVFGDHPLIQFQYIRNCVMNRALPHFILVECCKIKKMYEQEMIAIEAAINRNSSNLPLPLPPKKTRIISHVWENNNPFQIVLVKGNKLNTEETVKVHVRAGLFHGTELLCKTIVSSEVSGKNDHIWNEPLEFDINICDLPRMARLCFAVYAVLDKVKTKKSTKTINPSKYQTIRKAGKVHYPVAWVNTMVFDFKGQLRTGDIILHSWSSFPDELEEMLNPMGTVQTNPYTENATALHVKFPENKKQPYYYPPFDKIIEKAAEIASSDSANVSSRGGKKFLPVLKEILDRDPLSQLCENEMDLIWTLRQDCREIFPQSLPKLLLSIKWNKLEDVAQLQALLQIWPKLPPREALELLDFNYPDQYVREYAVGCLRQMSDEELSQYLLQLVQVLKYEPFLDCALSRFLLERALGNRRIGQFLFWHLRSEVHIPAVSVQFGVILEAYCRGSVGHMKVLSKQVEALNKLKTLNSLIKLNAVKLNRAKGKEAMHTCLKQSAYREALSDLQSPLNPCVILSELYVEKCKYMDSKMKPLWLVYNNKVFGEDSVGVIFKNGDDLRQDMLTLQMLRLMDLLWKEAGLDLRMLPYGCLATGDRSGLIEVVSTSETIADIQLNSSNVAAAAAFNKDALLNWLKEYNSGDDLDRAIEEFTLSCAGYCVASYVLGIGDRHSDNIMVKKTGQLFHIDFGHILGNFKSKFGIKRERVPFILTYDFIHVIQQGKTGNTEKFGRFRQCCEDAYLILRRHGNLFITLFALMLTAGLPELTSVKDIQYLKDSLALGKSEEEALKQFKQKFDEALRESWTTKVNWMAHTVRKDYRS
Chain of PIK3CD (Human) (O00329 whole entry, looked up): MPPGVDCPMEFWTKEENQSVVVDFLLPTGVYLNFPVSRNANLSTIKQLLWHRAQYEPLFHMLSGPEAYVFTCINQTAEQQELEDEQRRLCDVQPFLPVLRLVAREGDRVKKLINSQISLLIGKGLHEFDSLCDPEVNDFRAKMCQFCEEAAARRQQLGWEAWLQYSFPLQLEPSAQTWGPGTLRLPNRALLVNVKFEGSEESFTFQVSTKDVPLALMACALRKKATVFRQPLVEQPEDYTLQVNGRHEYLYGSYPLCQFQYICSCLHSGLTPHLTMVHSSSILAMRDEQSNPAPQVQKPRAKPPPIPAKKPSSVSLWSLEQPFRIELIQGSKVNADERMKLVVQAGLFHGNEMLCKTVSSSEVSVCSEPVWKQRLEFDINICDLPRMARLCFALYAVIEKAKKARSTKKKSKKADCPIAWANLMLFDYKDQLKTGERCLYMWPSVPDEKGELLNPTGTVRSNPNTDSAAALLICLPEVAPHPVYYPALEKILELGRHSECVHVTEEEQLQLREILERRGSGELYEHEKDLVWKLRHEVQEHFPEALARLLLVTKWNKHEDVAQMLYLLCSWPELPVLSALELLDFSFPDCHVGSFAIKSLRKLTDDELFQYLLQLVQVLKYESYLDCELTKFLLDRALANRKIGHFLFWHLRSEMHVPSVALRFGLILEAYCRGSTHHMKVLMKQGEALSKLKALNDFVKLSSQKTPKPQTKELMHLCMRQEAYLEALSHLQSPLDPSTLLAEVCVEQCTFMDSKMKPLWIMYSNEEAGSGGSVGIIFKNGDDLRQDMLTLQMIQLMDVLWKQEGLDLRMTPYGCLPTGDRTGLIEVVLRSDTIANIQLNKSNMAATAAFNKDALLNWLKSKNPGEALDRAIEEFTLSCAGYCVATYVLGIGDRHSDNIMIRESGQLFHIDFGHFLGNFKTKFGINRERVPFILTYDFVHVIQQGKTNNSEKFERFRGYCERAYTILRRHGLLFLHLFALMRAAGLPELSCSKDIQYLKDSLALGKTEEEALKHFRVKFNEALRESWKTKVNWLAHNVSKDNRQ
Chain of PIK3CG (human) (P48736 whole entry, looked up): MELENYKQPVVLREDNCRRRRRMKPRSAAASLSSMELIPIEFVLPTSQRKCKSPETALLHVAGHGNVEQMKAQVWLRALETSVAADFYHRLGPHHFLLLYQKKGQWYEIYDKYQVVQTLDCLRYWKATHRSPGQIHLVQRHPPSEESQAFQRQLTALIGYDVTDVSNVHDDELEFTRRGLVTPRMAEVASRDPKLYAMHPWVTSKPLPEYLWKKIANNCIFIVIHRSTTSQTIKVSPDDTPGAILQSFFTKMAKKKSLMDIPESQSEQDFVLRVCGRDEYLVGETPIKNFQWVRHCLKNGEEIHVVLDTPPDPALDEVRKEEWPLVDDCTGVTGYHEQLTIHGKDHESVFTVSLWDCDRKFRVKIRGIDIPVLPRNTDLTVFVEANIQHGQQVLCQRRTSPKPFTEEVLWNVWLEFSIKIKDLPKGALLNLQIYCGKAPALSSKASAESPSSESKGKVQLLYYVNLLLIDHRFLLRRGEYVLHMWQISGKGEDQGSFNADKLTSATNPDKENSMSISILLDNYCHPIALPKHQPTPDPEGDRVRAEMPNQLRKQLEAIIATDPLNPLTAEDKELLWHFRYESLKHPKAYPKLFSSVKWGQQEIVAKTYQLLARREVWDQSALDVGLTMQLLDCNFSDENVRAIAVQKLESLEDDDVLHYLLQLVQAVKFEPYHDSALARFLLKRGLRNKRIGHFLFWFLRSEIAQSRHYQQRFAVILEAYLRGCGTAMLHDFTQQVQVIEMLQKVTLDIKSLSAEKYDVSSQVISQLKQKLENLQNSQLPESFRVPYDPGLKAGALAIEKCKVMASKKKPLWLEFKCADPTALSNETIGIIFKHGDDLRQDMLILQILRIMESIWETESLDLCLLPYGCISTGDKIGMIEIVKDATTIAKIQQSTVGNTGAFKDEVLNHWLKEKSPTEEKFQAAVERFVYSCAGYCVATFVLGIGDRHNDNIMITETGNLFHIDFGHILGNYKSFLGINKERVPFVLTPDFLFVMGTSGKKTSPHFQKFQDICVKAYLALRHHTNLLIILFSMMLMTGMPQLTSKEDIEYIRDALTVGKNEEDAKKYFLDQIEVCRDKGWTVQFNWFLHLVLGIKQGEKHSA

Compound	pIC50 [1]	pIC50 [2]	pIC50 [3]	pIC50 [4]
Cn1cc(C#Cc2cccc3cc(CNC(=O)c4c(N)nn5cccnc45)n(-c4ccccc4)c(=O)c23)cn1	5.00 to 5.30	5.00 to 5.30	5.30 to 6.00	
C[C@H](NC(=O)c1c(N)nn2cccnc12)c1cc2cccc(C#Cc3ccccn3)c2c(=O)n1-c1ccccc1	5.00 to 5.30	5.00 to 5.30	6.30 to 7.00	6.00 to 6.30
C[C@H](NC(=O)c1c(N)nn2cccnc12)c1cc2cccc(C#CC3CCCC3)c2c(=O)n1-c1ccccc1	5.00 to 5.30	5.00 to 5.30	5.30 to 6.00	5.00 to 6.00
CCOC(C#Cc1cccc2cc([C@H](C)NC(=O)c3c(N)nn4cccnc34)n(-c3ccccc3)c(=O)c12)OCC	5.00 to 5.30	5.00 to 5.30	6.00 to 6.30	6.00 to 6.30
COc1cnc(C(=O)N[C@@H](C)c2cc3cccc(C#Cc4cnn(C)c4)c3c(=O)n2-c2ccccc2)c(N)n1	5.00 to 5.30	5.00 to 5.30	< 5.30	5.00 to 6.00
C#Cc1cccc2nc([C@H](C)NC(=O)c3c(N)nn4cccnc34)n(C)c(=O)c12	6.00 to 6.30	5.30 to 6.00	6.00 to 6.30	7.00 to 9.00
CC#Cc1cccc2nc([C@H](C)NC(=O)c3c(N)nn4cccnc34)n(-c3ccccc3)c(=O)c12	5.30 to 6.00	6.00 to 6.30	7.00 to 9.00	7.00 to 9.00
C#Cc1cccc2nc([C@H](C)NC(=O)c3nccnc3N)n(-c3ccc(F)cc3)c(=O)c12	5.30 to 6.00	5.30 to 6.00	7.00 to 9.00	7.00 to 9.00
C[C@H](NC(=O)c1c(N)nn2cccnc12)c1cc2cccc(C#CC3CCOC3)c2c(=O)n1-c1ccccc1 (stereo not given in full)	5.00 to 5.30	5.00 to 5.30	7.00 to 9.00	6.30 to 7.00
Cc1c(C#Cc2cccc3nc([C@H](C)NC(=O)c4c(N)nn5cccnc45)n(-c4ccccc4)c(=O)c23)cnn1C	5.00 to 5.30	5.00 to 5.30	6.30 to 7.00	6.30 to 7.00
C[C@H](NC(=O)c1c(N)nn2cccnc12)c1cc2cccc(C#Cc3ccn(C)n3)c2c(=O)n1-c1ccccc1	5.00 to 5.30	5.00 to 5.30	6.30 to 7.00	6.30 to 7.00
C[C@H](NC(=O)c1c(N)nn2cccnc12)c1cc2cccc(C#Cc3cnn(C)c3)c2c(=O)n1-c1cccc(F)c1	5.00 to 5.30	5.00 to 5.30	7.00 to 9.00	
COCC#Cc1cccc2cc([C@H](C)NC(=O)c3c(N)nn4cccnc34)n(-c3ccccc3)c(=O)c12	5.30 to 6.00	5.30 to 6.00	7.00 to 9.00	6.30 to 7.00
C[C@H](NC(=O)c1c(N)nn2cccnc12)c1cc2cccc(C#Cc3cncn3C)c2c(=O)n1-c1ccccc1	5.00 to 5.30	5.00 to 5.30	6.30 to 7.00	6.00 to 6.30
C[C@H](NC(=O)c1c(N)nn2cccnc12)c1cc2cccc(C#CC(C)(C)O)c2c(=O)n1-c1ccccc1	5.00 to 5.30	5.00 to 5.30	6.30 to 7.00	5.00 to 6.00
C[C@H](NC(=O)c1c(N)nn2cccnc12)c1cc2cccc(C#CC3CCOCC3)c2c(=O)n1-c1ccccc1	5.00 to 5.30	5.00 to 5.30	6.30 to 7.00	7.00 to 9.00
C[C@H](NC(=O)c1c(N)nn2cccnc12)c1cc2cccc(C#CC3CC3)c2c(=O)n1C1CC1	5.30 to 6.00	5.30 to 6.00	5.30 to 6.00	6.30 to 7.00
CC#Cc1cccc2cc(C(C)NC(=O)c3c(N)nn4cccnc34)c(-c3ccccc3)nc12 (stereo not given)	5.30 to 6.00	5.30 to 6.00	6.30 to 7.00	7.00 to 9.00
CNS(=O)(=O)CCn1c([C@H](C)NC(=O)c2c(N)nn3cccnc23)cc2cccc(C#Cc3cnn(C)c3)c2c1=O	5.30 to 6.00	5.00 to 5.30	7.00 to 9.00	
C[C@H](NC(=O)c1c(N)nn2cccnc12)c1cc2cccc(C=Cc3ccccc3)c2c(=O)n1-c1ccccc1	5.00 to 5.30	5.00 to 5.30	< 5.30	
Cc1cc(C)n2nc(N)c(C(=O)N[C@@H](C)c3cc4cccc(C#Cc5cnn(C)c5)c4c(=O)n3-c3ccccc3)c2n1	5.00 to 5.30	5.00 to 5.30	6.30 to 7.00	
C#Cc1cccc2nc([C@H](C)NC(=O)c3nccnc3N)n(-c3ccccc3)c(=O)c12	6.30 to 9.00	6.30 to 9.00	7.00 to 9.00	
C[C@H](NC(=O)c1c(N)nn2cccnc12)c1cc2cccc(C#CC3CCN(C)CC3)c2c(=O)n1-c1ccccc1	5.00 to 5.30	5.00 to 5.30	6.00 to 6.30	
C[C@H](NC(=O)c1c(N)nn2cccnc12)c1cc2cccc(C#Cc3cnn(C)c3)c2c(=O)n1CCS(=O)(=O)N(C)C	5.30 to 6.00	5.00 to 5.30	7.00 to 9.00	
Cc1cccc(-n2c([C@H](C)NC(=O)c3c(N)nn4cccnc34)cc3cccc(C#Cc4cnn(C)c4)c3c2=O)c1	5.00 to 5.30	5.00 to 5.30	6.30 to 7.00	
CC[C@H](NC(=O)c1c(N)nn2cccnc12)c1cc2cccc(C#Cc3cnn(C)c3)c2c(=O)n1-c1ccccc1	5.00 to 5.30	5.00 to 5.30	7.00 to 9.00	
Cc1ccnc2c(C(=O)N[C@@H](C)c3cc4cccc(C#Cc5cnn(C)c5)c4c(=O)n3-c3ccccc3)cnn12	5.00 to 5.30	5.00 to 5.30	6.30 to 7.00	

Other lines, results leading:

pIC50 [1]	pIC50 [2]	pIC50 [3]	pIC50 [4]	Compound
5.00 to 5.30	5.00 to 5.30	6.30 to 7.00	6.30 to 7.00	C[C@H](NC(=O)c1c(N)nn2cccnc12)c1cc2cccc(C#CCN3CCN(C)CC3)c2c(=O)n1-c1ccccc1
5.00 to 5.30	5.00 to 5.30	5.30 to 6.00		C[C@H](NC(=O)c1c(N)nn2cccnc12)c1cc2cccc(C#Cc3cnn(C)c3)c2c(=O)n1C1CCCCC1
5.00 to 5.30	5.00 to 5.30	5.30 to 6.00	5.00 to 6.00	C[C@H](NC(=O)c1c(N)nn2cccnc12)c1cc2cccc(NC(=O)c3cnn(C)c3)c2c(=O)n1-c1ccccc1
5.00 to 5.30	5.30 to 6.00	6.00 to 6.30	6.30 to 7.00	C[C@H](NC(=O)c1c(N)nn2cccnc12)c1cc2cccc(CC(=O)c3cn[nH]c3)c2c(=O)n1-c1ccccc1
5.00 to 5.30	5.30 to 6.00	7.00 to 9.00	6.30 to 7.00	C[C@H](NC(=O)c1c(N)nn2cccnc12)c1cc2cccc(C#Cc3ccc(=O)n(C)c3)c2c(=O)n1-c1ccccc1
5.30 to 6.00	5.30 to 6.00	7.00 to 9.00	7.00 to 9.00	C#Cc1cccc2nc([C@H](C)NC(=O)c3c(N)nn4cccnc34)n(-c3ccccc3)c(=O)c12
5.30 to 6.00	6.00 to 6.30	7.00 to 9.00	7.00 to 9.00	C[C@H](NC(=O)c1c(N)nn2cccnc12)c1cc2cccc(C#CCO)c2c(=O)n1-c1ccccc1
5.00 to 5.30	5.00 to 5.30	7.00 to 9.00	6.30 to 7.00	Cc1nc(C#Cc2cccc3cc([C@H](C)NC(=O)c4c(N)nn5cccnc45)n(-c4ccccc4)c(=O)c23)cs1
5.00 to 5.30	5.00 to 5.30	7.00 to 9.00		Cc1ccccc1-n1c([C@H](C)NC(=O)c2c(N)nn3cccnc23)cc2cccc(C#Cc3cnn(C)c3)c2c1=O
5.00 to 5.30	5.00 to 5.30	6.00 to 6.30	6.00 to 6.30	CC(C)C#Cc1cccc2nc([C@H](C)NC(=O)c3c(N)nn4cccnc34)n(-c3ccccc3)c(=O)c12
5.00 to 5.30	5.00 to 5.30	7.00 to 9.00		C[C@H](NC(=O)c1c(N)nn2cccnc12)c1cc2cccc(C#Cc3cnn(C)c3)c2c(=O)n1-c1ccc(F)cc1
5.00 to 5.30	5.00 to 5.30	7.00 to 9.00	6.00 to 6.30	Cc1ccc(C#Cc2cccc3cc([C@H](C)NC(=O)c4c(N)nn5cccnc45)n(-c4ccccc4)c(=O)c23)cn1
5.00 to 5.30	5.00 to 5.30	6.30 to 7.00	6.00 to 6.30	Cc1nn(C)cc1C#Cc1cccc2cc([C@H](C)NC(=O)c3c(N)nn4cccnc34)n(-c3ccccc3)c(=O)c12
5.00 to 5.30	5.00 to 5.30	6.30 to 7.00		C[C@H](NC(=O)c1c(N)nn2cccnc12)c1cc2cccc(C#Cc3cnn(C)c3)c2c(=O)n1-c1ccc(F)c(F)c1
5.00 to 5.30	5.00 to 5.30	6.00 to 6.30	5.00 to 6.00	C[C@H](NC(=O)c1c(N)nn2cccnc12)c1cc2cccc(C#CC3CCNCC3)c2c(=O)n1-c1ccccc1
5.00 to 5.30	5.00 to 5.30	5.30 to 6.00	6.30 to 7.00	COc1cc(C#Cc2cccc3cc([C@H](C)NC(=O)c4c(N)nn5cccnc45)n(-c4ccccc4)c(=O)c23)ccn1
5.30 to 6.00	5.30 to 6.00	7.00 to 9.00		C[C@H](NC(=O)c1c(N)nn2cccnc12)c1cc2cccc(N)c2c(=O)n1-c1ccccc1
5.00 to 5.30	5.00 to 5.30	6.00 to 6.30	5.00 to 6.00	Cc1ccncc1C#Cc1cccc2cc([C@H](C)NC(=O)c3c(N)nn4cccnc34)n(-c3ccccc3)c(=O)c12
5.00 to 5.30	5.00 to 5.30	6.00 to 6.30		CC(C)n1c([C@H](C)NC(=O)c2c(N)nn3cccnc23)cc2cccc(C#Cc3cnn(C)c3)c2c1=O
5.30 to 6.00	5.00 to 5.30	7.00 to 9.00		Cc1ccn2nc(N)c(C(=O)N[C@@H](C)c3cc4cccc(C#Cc5cnn(C)c5)c4c(=O)n3-c3ccccc3)c2n1
5.30 to 6.00	5.00 to 5.30		6.30 to 7.00	C[C@H](NC(=O)c1c(N)nn2cccnc12)c1cc2cccc(C#Cc3cnn(C)c3)c2c(=O)n1C1CC1
5.00 to 5.30	5.00 to 5.30	6.30 to 7.00		Cc1ccc(-n2c([C@H](C)NC(=O)c3c(N)nn4cccnc34)cc3cccc(C#Cc4cnn(C)c4)c3c2=O)cc1
5.30 to 6.00	5.30 to 6.00	6.30 to 7.00		Cc1nnc(C#Cc2cccc3cc([C@H](C)NC(=O)c4c(N)nn5cccnc45)n(-c4ccccc4)c(=O)c23)s1
5.00 to 5.30	5.00 to 5.30		6.30 to 7.00	C[C@H](NC(=O)c1c(N)nn2cccnc12)c1nc2cccc(C#Cc3cnn(C)c3)c2c(=O)n1-c1ccccc1
6.00 to 6.30	5.00 to 5.30	6.30 to 7.00		C[C@H](NC(=O)c1c(N)nn2cccnc12)c1cc2cccc(C#Cc3cnn(C)c3)c2c(=O)n1C
